Experimental data taken from PubChem BioAssay (NCI).
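GI50: concentration for 50% inhibition of growth. At the TGI there is no net growth.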

How the values were obtained:
Assay in all cases: NCI-60 cell line screen, 384-well format
[1] = system: A498 renal
[2] = system: A549 NSCLC
[3] = system: ACHN renal
[4] = system: BT-549 breast
[5] = system: CAKI-1 renal
[6] = system: CCRF-CEM leukemia
[7] = system: COLO 205 colon
[8] = system: DU-145 prostate
[9] = system: EKVX NSCLC
[10] = system: HCC-2998 colon
[11] = system: HCT-116 colon
[12] = system: HCT-15 colon
[13] = system: HL-60(TB) leukemia
[14] = system: HOP-62 NSCLC
[15] = system: HOP-92 NSCLC
[16] = system: HS 578T breast
[17] = system: HT29 colon
[18] = system: IGROV1 ovarian
[19] = system: K-562 leukemia
[20] = system: KM12 colon
[21] = system: LOX IMVI melanoma
[22] = system: M14 melanoma
[23] = system: MALME-3M melanoma
[24] = system: MDA-MB-231 breast
[25] = system: MDA-MB-468 breast
[26] = system: MOLT-4 leukemia
[27] = system: NCI-H226 lung
[28] = system: NCI-H23 lung
[29] = system: NCI-H322M lung
[30] = system: NCI/ADR-RES ovarian
[31] = system: OVCAR-3 ovarian
[32] = system: OVCAR-4 ovarian
[33] = system: OVCAR-8 ovarian
[34] = system: PC-3 prostate
[35] = system: RXF 393 renal
[36] = system: SF-268 CNS
[37] = system: SF-295 CNS
[38] = system: SF-539 CNS
[39] = system: SK-MEL-28 melanoma
[40] = system: SK-OV-3 ovarian
[41] = system: SN12C renal
[42] = system: SNB-19 CNS
[43] = system: SNB-75 CNS
[44] = system: SR leukemia
[45] = system: SW-620 colon
[46] = system: TK-10 renal
[47] = system: UACC-257 melanoma
[48] = system: UO-31 renal

O=C(O)C1(Cc2cccc(Nc3nccs3)n2)CCC(Oc2cccc(Cl)c2F)CC1 (stereo unspecified) was tested, and the GI50 [1] was 11.6 µM, the TGI [1] was 25 µM and the GI50 [2] was 8.56 µM. It also gave a TGI [2] of 24.2 µM, a GI50 [3] of 14.6 µM and a TGI [3] of 48.9 µM. The GI50 [4] was 0.573 µM, the TGI [4] was 22.3 µM and the GI50 [5] was 11.3 µM. The TGI [5] was 25.5 µM, the GI50 [6] was 0.249 µM and the TGI [6] was 1.1 µM. The GI50 [7] was 0.609 µM, the TGI [7] was 21.7 µM and the GI50 [8] was 10.7 µM. It also gave a TGI [8] of 26.2 µM, a GI50 [9] of 10.1 µM and a TGI [9] of 24.5 µM. The GI50 [10] was 16 µM, the TGI [10] was 29.7 µM and the GI50 [11] was 0.0796 µM. The TGI [11] was 17.6 µM, the GI50 [12] was 5.24 µM and the TGI [12] was 21.3 µM. The GI50 [13] was 0.397 µM, the TGI [13] was 1.53 µM and the GI50 [14] was 1.89 µM. It also gave a TGI [14] of 20.2 µM, a GI50 [15] of 10.4 µM and a TGI [15] of 22.9 µM. The GI50 [16] was 0.0962 µM, the TGI [16] was 17.9 µM and the GI50 [17] was 4.21 µM. The TGI [17] was 17.1 µM, the GI50 [18] was 13.4 µM and the TGI [18] was 27.6 µM. For the same compound, the GI50 [19] was 0.313 µM, the TGI [19] was 1.27 µM and the GI50 [20] was 0.124 µM. The TGI [20] was 16.1 µM, the GI50 [21] was 10.3 µM and the TGI [21] was 22.1 µM. It also gave a GI50 [22] of 0.381 µM, a TGI [22] of 21.4 µM and a GI50 [23] of 18.2 µM. For the same compound, the TGI [23] was 37.4 µM, the GI50 [24] was 11.7 µM and the TGI [24] was 31.3 µM. The GI50 [25] was 0.122 µM, the TGI [25] was 0.288 µM and the GI50 [26] was 0.0886 µM. It also gave a TGI [26] of 1.05 µM, a GI50 [27] of 3.06 µM and a TGI [27] of 20.1 µM. The GI50 [28] was 0.562 µM, the TGI [28] was 20.8 µM and the GI50 [29] was 16.5 µM. For the same compound, the TGI [29] was 32.6 µM, the GI50 [30] was 0.329 µM and the TGI [30] was 13.3 µM. The GI50 [31] was 0.41 µM, the TGI [31] was 18.2 µM and the GI50 [32] was 16.6 µM. It also gave a TGI [32] of 58.5 µM, a GI50 [33] of 0.46 µM and a TGI [33] of 20.3 µM. For the same compound, the GI50 [34] was 11.7 µM, the TGI [34] was 24.7 µM and the GI50 [35] was 0.358 µM. For the same compound, the TGI [35] was 12.3 µM, the GI50 [36] was 0.3 µM and the TGI [36] was 28 µM. For the same compound, the GI50 [37] was 2.02 µM, the TGI [37] was 23.4 µM and the GI50 [38] was 3.09 µM. It also gave a TGI [38] of 20.6 µM, a GI50 [39] of 15.7 µM and a TGI [39] of 61.1 µM. It also gave a GI50 [40] of 11.5 µM, a TGI [40] of 26.3 µM and a GI50 [41] of 11.1 µM. The TGI [41] was 26.4 µM, the GI50 [42] was 12.1 µM and the TGI [42] was 29.6 µM. It also gave a GI50 [43] of 0.972 µM, a TGI [43] of 28.5 µM and a GI50 [44] of 0.0417 µM. It also gave a TGI [44] of 0.105 µM, a GI50 [45] of 1.2 µM and a TGI [45] of 19.9 µM. It also gave a GI50 [46] of 13.3 µM, a TGI [46] of 31.3 µM and a GI50 [47] of 19.6 µM. For the same compound, the TGI [47] was 54.5 µM, the GI50 [48] was 14 µM and the TGI [48] was 27.7 µM.
